Measured values: patent US6562828B1, “Amidine compounds” (Japan Tobacco Inc., priority 1998, dated 2003)
Where a name gives a salt, the structure may show the parent alone.

Columns and labels:
Human FXa [1] = biological target: T1, Human FXa (Homo sapiens, UniProt P00742); experiment: Determination of anti-factor Xa (FXa) activity, synthetic substrate S-2222; assay type: biochemical; conditions: S-2222, 37° C., pH 8.4, read-out: Experimental Example 1: anti-FXa activity, IC50
T1 construct: Human FXa [Enzyme research Laboratories (USA)] enzyme; purchased Enzyme Research Laboratories (USA)
Protocol: Determination of Anti-factor Xa (FXa) Activity
Human FXa [Enzyme research Laboratories (USA)] enzyme (40 μl, 0.16U/ml) and test compounds (40 l) adjusted to various concentrations were incubated in 0.1M Tris (Tris-hydroxymethyl-aminomethane) buffer (pH 8.4) containing 0.2M sodium chloride (herein to be referred to as 0.1 M tris-0.2M NaCl buffer) (40 μl) at 37° C. for 10 min. A synthetic substrate S-2222 (Daiichi Pure Chemical (Tokyo, Japan), 40 μl) adjusted to 0.8 mM was added and the mixture was incubated at 37° C. for 10 min. The reaction was stopped by addition of 60% acetic acid (40 μl) and absorbance at 405 nm was measured by Model 3550 (BIO-RAD). For the control, the solvent was used instead of the test compound.
Target sequence in this assay (P00742 235-488 limits assumed): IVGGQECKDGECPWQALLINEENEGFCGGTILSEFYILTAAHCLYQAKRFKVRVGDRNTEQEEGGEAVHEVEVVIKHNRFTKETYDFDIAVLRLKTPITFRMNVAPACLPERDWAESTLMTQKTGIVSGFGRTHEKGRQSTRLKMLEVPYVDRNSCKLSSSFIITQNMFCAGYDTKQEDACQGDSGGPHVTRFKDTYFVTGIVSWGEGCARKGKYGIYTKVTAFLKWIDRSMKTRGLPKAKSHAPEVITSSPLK
Target sequence in this assay (P00742 41-179 partner limits assumed): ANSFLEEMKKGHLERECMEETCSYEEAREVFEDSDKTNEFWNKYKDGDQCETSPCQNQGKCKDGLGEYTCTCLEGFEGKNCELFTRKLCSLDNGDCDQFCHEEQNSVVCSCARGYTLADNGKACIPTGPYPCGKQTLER

Human FIIa = biological target: T2, Human FIIa (Homo sapiens, UniProt P00734); experiment: Determination of anti-factor IIa (FIIa) activity, synthetic substrate S-2238; assay type: biochemical; conditions: S-2238, 37° C., pH 8.4, read-out: Experimental Example 2: anti-FIIa activity, IC50
T2 construct: purchased Sigma

Human FXa [2] = biological target: T1, Human FXa; experiment: Intravenous administration test in mouse, human FXa inhibitory activity in serum; assay type: in vivo; conditions: ICR mice, i.v., mean ± S.D., n = 3
Protocol: Intravenous Administration Tests in Mouse
A test compound dissolved in physiological saline was intravenously administered to ICR mice (body weight 20-30 g, 4-6 weeks old) and the activity of the test compound was evaluated based on the human FXa inhibitory activity in serum as an indicator.
At 10, 30, 60, 120 min from the intravenous administration, blood was taken from the eye ground using a hematocrit tube. The blood was centrifuged at 9000 G for 5 min and the obtained serum was used for the determination.
(§1) Human FXa inhibitory activity was measured as follows. Human FXa [Enzyme research Laboratories (USA)] enzyme (40 μl, 0.5 U/ml) and a 4-fold diluted plasma sample (40 μl) were incubated in 0.1M Tris-0.2M NaCl buffer (pH 8.4) (40 μl) at 37° C. for 10 min. A synthetic substrate S-2222 (Daiichi Pure Chemical (Tokyo, Japan), 40 μl) adjusted to 0.8 mM was added and the mixture was incubated at 37° C. for 5 min. The reaction was stopped by addition of 60% acetic acid (40 μl) and absorbance at 405 nm was measured by Model 3550 (BIO-RAD). For the control, serum or plasma obtained prior to blood sampling was used for measurement. Human FXa inhibitory activity was calculated as inhibition percentage (%) against control.
Target sequence in this assay (P00742 235-488 limits assumed): as the sequence (P00742 235-488 limits assumed) above
Target sequence in this assay (P00742 41-179 limits assumed): as the sequence (P00742 41-179 partner limits assumed) above

Human FXa [3] = biological target: T1, Human FXa; experiment: Intravenous administration test in monkey, human FXa inhibitory activity in plasma; assay type: in vivo; conditions: crab-eating monkey, i.v., mean ± S.D., n = 3
Protocol: as §1
Target sequence in this assay (P00742 235-488 limits assumed): as the sequence (P00742 235-488 limits assumed) above
Target sequence in this assay (P00742 41-179 limits assumed): as the sequence (P00742 41-179 partner limits assumed) above
Intravenous Administration Tests in Monkey
A test compound dissolved in physiological saline was intravenously administered to monkey (crab-eating monkey, body weight 3.5-4.5 kg) and the activity of the test compound was evaluated based on the human FXa inhibitory activity in plasma as an indicator.
(§2) At 10, 30, 60, 120, 180 min from the intravenous administration, blood was taken from the saphenous vein with the passage of time and the blood was centrifuged at 2000 G for 10 min. The obtained citric acid plasma was used for the determination. Human FXa inhibitory activity was determined in the same manner as in the test using mouse.

Human FXa [4] = biological target: T1, Human FXa; experiment: Oral administration test in monkey, human FXa inhibitory activity in plasma; assay type: in vivo; conditions: crab-eating monkey, mean ± S.D., n = 3
Protocol: as §1
Target sequence in this assay (P00742 235-488 limits assumed): as the sequence (P00742 235-488 limits assumed) above
Target sequence in this assay (P00742 41-179 limits assumed): as the sequence (P00742 41-179 partner limits assumed) above
Oral Administration Tests in Monkey
A test compound dissolved in distilled water was orally administered to monkey (carb-eating monkey, body weight 3.5-4.5 kg) and the activity of the test compound was evaluated based on the human FXa inhibitory activity in plasma as an indicator.
as §2, with “At” for “At 10,”, “240, 480” for “180”, “oral” for “intravenous”, “by intravenous administration.” for “using mouse.”

Human FXa [5] = biological target: T1, Human FXa; experiment: Oral administration test in mouse, human FXa inhibitory activity in serum; assay type: in vivo; conditions: ICR mice, mean ± S.D., n = 3
Protocol: as §1
Target sequence in this assay (P00742 235-488 limits assumed): as the sequence (P00742 235-488 limits assumed) above
Target sequence in this assay (P00742 41-179 limits assumed): as the sequence (P00742 41-179 partner limits assumed) above
Oral Administration Tests in Mouse
A test compound dissolved in distilled water was orally administered to ICR mice (body weight 20-30 g, 4-6 weeks old) and the activity of the test compound was evaluated based on the human FXa inhibitory activity in serum as an indicator.
At 30, 60, 120, 180 min from the oral administration, blood was taken from the eye ground using a hematocrit tube. The blood was centrifuged at 9000 G for 5 min and the obtained serum was used for the determination. Human FXa inhibitory activity was determined in the same manner as in the test by intravenous administration.

| SMILES | IC50 (Human FXa [1]) [nM] | IC50 (Human FIIa) [nM] | inhibition at 1 mg/kg (Human FXa [2]; 10 minutes) [%] | inhibition at 1 mg/kg (Human FXa [2]; 30 minutes) [%] | inhibition at 1 mg/kg (Human FXa [2]; 60 minutes) [%] | also measured |
| --- | --- | --- | --- | --- | --- | --- |
| N=C(N)c1ccc2c(c1)nc(CN(C(=O)c1ccc(C(=O)O)cc1)c1ccc(OC3CCN(C(=N)N)CC3)cc1)n2CC(=O)NC1CCCCC1 [Example 65, N-[5-Amidino-1-(cyclohexylcarbamoylmethyl)benzimidazol-2-ylmethyl]-N-[4-(1-amidinopiperidin-4-yloxy)phenyl]carbamoylbenzoic Acid Dihydrochloride] | 20 | > 10000 | 55 ± 1 | 34 ± 2 | 17 ± 2 |  |
| CCN=C(N)N1CCC(Oc2ccc(N(Cc3nc4cc(C(=N)N)ccc4n3CC(=O)NC3CCCCC3)C(=O)c3ccc(C(=O)O)cc3)cc2)CC1 [Example 112, N-[5-Amidino-1-(cyclohexylcarbamoylmethyl)benzimidazol-2-ylmethyl]-N-[4-[1-(N-ethylamidino)piperidin-4-yloxy]phenyl]carbamoylbenzoic Acid Dihydrochloride] | 20 | > 10000 | 49 ± 1 | 41 ± 8 | 23 ± 11 |  |
| CC(=N)N1CCC(COc2ccc3c(c2)CN(C(=N)N)CC3)CC1 [Example 29, 7-(1-Acetimidoylpiperidin-4-ylmethoxy)-1,2,3,4-tetrahydroisoquinoline-2-carboxamidine Dihydrochloride] | 500 | > 10000 |  |  |  |  |
| N=C(N)N1CCc2ccc(OCC3CCN(C(=N)Cc4ccccc4)CC3)cc2C1 [Example 30, 7-(1-Phenylacetimidoylpiperidin-4-ylmethoxy)-1,2,3,4-tetrahydroisoquinoline-2-carboxamidine Dihydrochloride] | 400 | > 10000 |  |  |  |  |
| N=C(N)c1ccc2ccc(OCC3(C(=O)O)CCN(c4ccncc4)CC3)c(Cl)c2c1 [Example 39, 4-(2-Amidino-8-chloronaphthalen-7-yloxymethyl)-1-(pyridin-4-yl)piperidine-4-carboxylic Acid Dihydrochloride] | 500 | > 10000 |  |  |  |  |
| CCOC(=O)C1(COc2ccc3c(c2)CN(C(=N)N)CC3)CCN(c2cc(C)nc(C)c2)CC1 [Example 10, 4-(2-Amidino-1,2,3,4-tetrahydroisoquinolin-7-yloxymethyl)-1-(2,6-dimethylpyridin-4-yl)piperidine-4-carboxylic Acid Ethyl Ester Dihydrochloride] | 700 | > 10000 |  |  |  |  |
| CC(=N)N1CCC(Oc2ccc(OCc3nc4cc(C(=N)N)ccc4n3CC(=O)c3ccccc3)cc2)CC1 [Example 57, 2-[4-(1-Acetimidoylpiperidin-4-yloxy)phenoxymethyl]-1-phenacylbenzimidazole-5-carboxamidine Dihydrochloride] | 50 | > 10000 |  |  |  |  |
| COC(=O)c1ccc(C(=O)N(Cc2nc3cc(C(=N)N)ccc3n2CC(=O)NC2CCCCC2)c2ccc(OC3CCN(C(=N)N)CC3)cc2)cc1 [Example 64, 2-[N-[4-(1-Amidinopiperidin-4-yloxy)phenyl]-N-(4-methoxycarbonyl-benzoyl)aminomethyl]-1-(cyclohexylcarbamoylmethyl)benzimidazole-5-carboxamidine Dihydrochloride] | 100 | > 10000 | 55 ± 2 | 43 ± 5 | 28 ± 6 |  |
| N=C(N)N1CCc2ccc(OCC3(C(=O)O)CCN(c4ccncc4)CC3)cc2C1 [Example 9, 4-(2-Amidino-1,2,3,4-tetrahydroisoquinolin-7-yloxymethyl)-1-(pyridin-4-yl)piperidine-4-carboxylic Acid Hydrochloride] |  |  |  |  |  | inhibition at 1 mg/kg (Human FXa [3]; 10 minutes): 82 ± 1%; inhibition at 1 mg/kg (Human FXa [3]; 30 minutes): 72 ± 2%; inhibition at 1 mg/kg (Human FXa [3]; 60 minutes): 58 ± 4%; inhibition at 1 mg/kg (Human FXa [3]; 120 minutes): 41 ± 3%; inhibition at 1 mg/kg (Human FXa [3]; 180 minutes): 29 ± 2%; inhibition at 10 mg/kg (Human FXa [4]; 30 minutes): 28 ± 33%; inhibition at 10 mg/kg (Human FXa [4]; 60 minutes): 37 ± 27%; inhibition at 10 mg/kg (Human FXa [4]; 120 minutes): 46 ± 20%; inhibition at 10 mg/kg (Human FXa [4]; 240 minutes): 49 ± 9%; inhibition at 10 mg/kg (Human FXa [4]; 480 minutes): 23 ± 11% |
| N=C(N)N1CCc2ccc(SCC3(C(=O)O)CCN(c4ccncc4)CC3)cc2C1 [Example 43, 4-(2-Amidino-1,2,3,4-tetrahydroisoquinolin-7-ylthiomethyl)-1-(pyridin-4-yl)piperidine-4-carboxylic Acid Dihydrochloride] | 400 | > 10000 |  |  |  |  |
| CC(=N)N1CCC(Oc2ccc(N(Cc3nc4cc(C(=N)N)ccc4n3CC(=O)Nc3ccc(OCc4ccccc4)cc3)C(=O)c3ccc(C(=O)O)cc3)cc2)CC1 [Example 18, 4-[N-[5-Amidino-1-(4-benzyloxyphenylcarbamoylmethyl)benzimidazol-2-ylmethyl]-N-[4-(1-acetimidoylpiperidin-4-yloxy)phenyl]carbamoyl]benzoic Acid Dihydrochloride] | 10 | > 10000 | 73 ± 1 | 60 ± 4 | 40 ± 3 | inhibition at 1 mg/kg (Human FXa [2]; 120 minutes): 23 ± 5% |
| N/C(=N/O)N1CCc2ccc(OCC3CCN(c4ccncc4)CC3)cc2C1 [Example 4, 7-[1-(Pyridin-4-yl)piperidin-4-ylmethoxy]-1,2,3,4-tetrahydroisoquinoline-2-carboxamide Oxime Dihydrochloride] | 600 | > 10000 |  |  |  |  |
| CC(=N)N1CCC(Oc2ccc(N(Cc3nc4cc(C(=N)N)ccc4n3CC(=O)NC3CCCCC3)C(=O)c3ccc(C(=O)O)cc3)cc2)CC1 [Example 63, N-[5-Amidino-1-(cyclohexylcarbamoylmethyl)benzimidazol-2-ylmethyl]-N-[4-(1-acetimidoylpiperidin-4-yloxy)phenyl]carbamoylbenzoic Acid] | 10 | > 10000 | 55 ± 3 | 46 ± 5 | 16 ± 7 | inhibition at 0.3 mg/kg (Human FXa [2]; 10 minutes): 32 ± 2%; inhibition at 0.3 mg/kg (Human FXa [2]; 30 minutes): 16 ± 3%; inhibition at 0.3 mg/kg (Human FXa [2]; 60 minutes): 4 ± 3%; inhibition at 0.3 mg/kg (Human FXa [2]; 120 minutes): 1 ± 3%; inhibition at 1 mg/kg (Human FXa [2]; 120 minutes): 3 ± 6%; inhibition at 10 mg/kg (Human FXa [5]; 30 minutes): 22 ± 6%; inhibition at 10 mg/kg (Human FXa [5]; 60 minutes): 14 ± 9%; inhibition at 10 mg/kg (Human FXa [5]; 120 minutes): 12 ± 10%; inhibition at 10 mg/kg (Human FXa [5]; 180 minutes): 12 ± 4% |
